Assay results from patent EP4635958A1, “PYRIMIDINE-CONTAINING POLYCYCLIC DERIVATIVE INHIBITOR, AND PREPARATION METHOD THEREFOR AND USE THEREOF” (Shanghai Hansoh Biomedical Co., Ltd., priority 2022, dated 2024).
Counter-ions that a name gives are not always drawn. Like-named read-outs stand apart in the source and are kept apart here.

Legend:
[1] = Pharmacokinetic determination in mice (IV and PO, plasma, LCMS/MS); assay type: in vivo, Balb/c mice; conditions: for AUC(0-inf) / C0 / clearance / half-life / Cmax / Tmax: mouse, in vivo; for C0: read-out: C0; for clearance: read-out: CL; for half-life: read-out: T1/2 (converted); for F: PO 30 mg/kg vs IV 1 mg/kg
How it was run: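 Male Balb/c mice, fasted overnight (n=3 per route): PO 30 mg/kg in 10% Captisol/50 mM citrate pH 5.0, or IV 1 mg/kg in 5% DMSO/10% Solutol HS15/85% PBS. Orbital blood sampled predose to 24 h; EDTA plasma analysed by LC-MS/MS.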

[2] = system: human pancreatic cancer cell line (HPAC); experiment: Antitumor efficacy in mouse transplanted tumor model of human pancreatic cancer cell line (HPAC); assay type: in vivo, mice (BALB/c nude); conditions: HPAC xenograft, 100mpk, PO*BID; for Tumor volume (mm^3, Mean ± SD) Day 0: Day 0 (baseline)
Source text: 8-10 week old female conventional immunodeficient mice (BALB/c nude) with a body weight of 18 g-22 g were used as experimental animals, and a transplanted tumor model of human pancreatic cancer cell line (HPAC) was used to conduct in vivo efficacy experiments to test the anti-tumor results of the example compounds after gavage administration.
The example compounds of the present invention, made in house.
A certain amount of the example compound was weighed, and an appropriate amount of 10% vehicle (Solutol HS15) was added. The mixture was stirred on a magnetic stirrer for 0.5 h to formulate a homogeneous suspension at the desired concentration.
Human pancreatic cancer cell line (HPAC) was derived from COBIOER BIOSCIENCES CO., LTD, cultured on DMEM/F12 medium (Gibco, 11330-032) supplemented with 10% fetal calf serum (Gibco, 10091-148), 1×Insulin (51500-056, Gibco) and 10 ng/ml of EGF (PHG0311, Gibco) and observed under a microscope (Thermo Fisher, 311). The cells were routinely passaged when the cells reached 80%-90% confluence in the culture flask. The passaged cells were cultured in a 37°C, 5% CO2 incubator (Thermo Fisher, 311).
Under aseptic conditions, human pancreatic cancer cells (HPAC) in the logarithmic growth phase were harvested using 0.25% trypsin-EDTA (Gibco, 25200-056), washed and resuspended with phosphate buffer. The cell suspension was mixed with Matrigel (Corning, 356234) at a 1 : 1 ratio (v/v) and implanted subcutaneously into the right anterior dorsal region of immunodeficient mice (BALB/c nude). Each mouse was inoculated with 3*10^6 cells in a volume of 100 microliters (µL). After inoculation, when the tumor volume reached 100-200 mm^3, the mice would be evenly randomized into 5 groups based on the tumor size, with 5 mice per group, for in vivo efficacy experiments. The negative control group was the vehicle group.
Mode of administration: The example compounds were administered orally.
Twice a week, the long and short diameters of the tumor were measured using a vernier caliper, and the tumor volume (mm^3) was calculated using the formula: V = 0.5*D*d*d, where D and d are the long and short diameters of the tumor, respectively. The anti-tumor efficacy was determined by dividing the average increase in tumor volume of compound-treated animals by the average increase in tumor volume of untreated animals. The calculation formula for tumor inhibition rate was: When there is no tumor regression, TGI(%) = 100-[(Vt-V0) administration group/(Vt-V0) vehicle control group]*100%. When tumor regression occurs, TGI(%) = [1-(Vt-V0) administration group/V0 vehicle control group]*100%. All animals were euthanized after the experiment.

[3] = Balb/c mice, intravenously (IV), 1 mg/kg, plasma, read-out: AUCo-∞
[4] = Balb/c mice, intravenously (IV), 1 mg/kg, plasma
[5] = PO, 30 mg/kg, male Balb/c mice, overnight fasting, plasma, read-out: AUC0-∞
[6] = PO, 30 mg/kg, male Balb/c mice, overnight fasting, plasma, read-out: Cmax
[7] = PO, 30 mg/kg, male Balb/c mice, overnight fasting, plasma
[8] = PO, 30 mg/kg, male Balb/c mice, overnight fasting, plasma, read-out: Tmax

Compound | AUC(0-inf) [1, 3] [ng·h/mL] | C0 [1, 4] [ng/mL] | clearance [1, 4] [mL/min/kg] | half-life [1, 4] [h] | Tumor volume (mm^3, Mean ± SD) Day 0 ([2]; Table 11) [mm^3] | TGI(%) Day 21 ([2]; Table 11) [%] | Tumor volume (mm^3, Mean ± SD) Day 21 ([2]; Table 11) [mm^3] | ΔT/ΔC(%) Day 21 ([2]; Table 11) [%] | AUC(0-inf) [1, 5] [ng·h/mL] | Cmax [1, 6] [ng/mL] | half-life [1, 7] [h] | Tmax [1, 8] [h] | F ([1]; male Balb/c mice) [%] | further results
C#Cc1c(F)ccc2cc(O)cc(-c3nc4c5c(nc(OCC6(CN7CCC(=NOC)CC7)CC6)nc5c3F)N3C[C@H]5CC[C@H](N5)[C@H]3[C@H](C)O4)c12 [Example 35-1, 1-((1-((((5S,5aS,6S,9R)-2-(8-ethynyl-7-fluoro-3-hydroxynaphthalen-1-yl)-1-fluoro-5-methyl-5a,6,7,8,9,10-hexahydro-5H-4-oxa-3,10a,11,13,14-pentaaza-6,9-methylenenaphtho[1,8-ab]heptalen-12-yl)oxo)methyl)cyclopropyl)methyl)piperidin-4-one O-methyloxime formate] | 144 | 693 | 116 | 3.2 | – | – | – | – | – | – | – | – | – | Tumor volume (mm^3, Mean ± SD) Day 0 ([2]; Table 12): 469 mm^3; TGI(%) Day 14 ([2]; Table 12): 76.39%; ΔT/ΔC(%) Day 14 ([2]; Table 12): 61.00%; Tumor volume (mm^3, Mean ± SD) Day 21 ([2]; Table 12): 585 mm^3
[2H]C([2H])(Oc1nc2c3c(nc(-c4cc(O)cc5ccc(F)c(C#C)c45)c(F)c3n1)O[C@@H](C)[C@@H]1[C@@H]3CC[C@H](CN21)N3)C1(C([2H])([2H])N2CCC(=CF)CC2)CC1 [Example 291, 5-ethynyl-6-fluoro-4-((5S,5aS,6S,9R)-1-fluoro-12-((1-((4-(fluoromethylene)piperidin-1-yl)methyl-d2)cyclopropyl)methoxy-d2)-5-methyl-5a,6,7,8,9,10-hexahydro-5H-4-oxa-3,10a,11,13,14-pentaaza-6,9-methylnaphtho[1,8-ab]hept-2-yl)naphthalen-2-ol] | – | – | – | – | 210 | 127.51 | 153 | 13.29 | – | – | – | – | – | –
C#Cc1c(F)ccc2cc(O)cc(-c3nc4c5c(nc(OCC6(CN7CCC(=CF)CC7)CC6)nc5c3F)N3C[C@H]5CC[C@H](N5)[C@H]3[C@H](C)O4)c12 [Example 129, 5-ethynyl-6-fluoro-4-((5S,5aS,6S,9R)-1-fluoro-12-((1-((4-(fluoromethylene)piperidin-1-yl)methyl)cyclopropyl)methoxy)-5-methyl-5a,6,7,8,9,10-hexahydro-5H-4-oxa-3,10a,11,13,14-pentaaza-6,9-methylnaphtho[1,8-ab]hept-2-yl)naphthalen-2-ol] | – | – | – | – | 209 | 97.63 | 231 | 20.27 | – | – | – | – | – | –
CON=C1CCN(CC2(COc3nc4c5c(nc(-c6cc(N)cc(Cl)c6C(F)(F)F)c(F)c5n3)O[C@@H](C)[C@@H]3[C@@H]5CC[C@H](CN43)N5)CC2)CC1 [Example 337, 1-((1-((((5S,5aS,6S,9R)-2-(5-amino-3-chloro-2-(trifluoromethyl)phenyl)-1-fluoro-5-methyl-5a,6,7,8,9,10-hexahydro-5H-4-oxa-3,10a,11,13,14-pentaaza-6,9-methylnaphtho[1,8-ab]heptene-12-yl)oxy)methyl)cyclopropyl)methyl)piperidin-4-one O-methyloxime] | – | – | – | – | – | – | – | – | 632 | 204 | 1.7 | 1 | – | –
[2H]C([2H])([2H])[C@@H]1Oc2nc(-c3cc(N)cc(Cl)c3C(F)(F)F)c(F)c3nc(OCC4(CN5CCC(=NOC)CC5)CC4)nc(c23)N2C[C@H]3CC[C@H](N3)[C@@H]12 [Example 339] | 133 | 188 | 125 | 4.8 | – | – | – | – | 476 | 143 | 1.8 | 1 | 13.8 | Tumor volume (mm^3, Mean ± SD) Day 0 ([2]; Table 12): 469 mm^3; TGI(%) Day 14 ([2]; Table 12): 160.47%; ΔT/ΔC(%) Day 14 ([2]; Table 12): 19.36%; Tumor volume (mm^3, Mean ± SD) Day 21 ([2]; Table 12): 185 mm^3
C#Cc1c(F)ccc2cc(O)cc(-c3nc4c5c(nc(OCC6(CN7CCC(=C(F)F)CC7)CC6)nc5c3F)N3C[C@H]5CC[C@H](N5)[C@H]3CO4)c12 [Example 1-1, 4-((5aS,6S,9R)-12-((1-((4-(difluoromethylene)piperidin-1-yl)methyl)cyclopropyl)methoxy)-1-fluoro-5a,6,7,8,9,10-hexahydro-5H-4-oxa-3,10a,11,13,14-pentaaza-6,9-methylenenaphtho[1,8-ab]heptalene-2-yl)-5-ethynyl-6-fluoronaphthalen-2-ol] | 583 | 886 | 28.6 | 8.6 | – | – | – | – | 2110 | 227 | 9.1 | 0.5 | 12.1 | –
4-((5S,5aS,6R,9S)-12-((1-((((R)-4-(difluoromethylene)-2-methylpiperidin-1-yl)methyl)cyclopropyl)methoxy)-1-fluoro-5-(methyl-d3)-5a,6,7,8,9,10-hexahydro-5H-4-oxa-3,10a,11,13,14-pentaaza-6,9-methylnaphtho[1,8-ab]hept-2-yl)-5-ethynyl-6-fluoronaphthalen-2-ol [Example 162] | – | – | – | – | 210 | 126.15 | 155 | 13.54 | – | – | – | – | – | –
[2H]C([2H])([2H])[C@@H]1Oc2nc(-c3cc(O)cc4ccc(F)c(C#C)c34)c(F)c3nc(OCC4(CN5CCC(=C(F)F)CC5)CC4)nc(c23)N2C[C@H]3CC[C@H](N3)[C@@H]12 [Example 161, 4-((5S,5aS,6S,9R)-12-((1-((4-(difluoromethylene)piperidin-1-yl)methyl)cyclopropyl)methoxy)-1-fluoro-5-(methyl-d3)-5a,6,7,8,9,10-hexahydro-5H-4-oxa-3,10a,11,13,14-pentaaza-6,9-methylnaphtho[1,8-ab]hept-2-yl)-5-ethynyl-6-fluoronaphthalen-2-ol] | – | – | – | – | 209 | 137.45 | 131 | 11.47 | – | – | – | – | – | AUC(0-inf) ([1]; po, 30 mg/kg): 1550 ng·h/mL; Cmax ([1]; po, 30 mg/kg): 221 ng/mL; Tmax ([1]; po, 30 mg/kg): 2 h
C#Cc1c(F)ccc2cc(O)cc(-c3nc4c5c(nc(OCC6(CN7CCC(=C(F)F)CC7)CC6)nc5c3F)N3C[C@H]5CC[C@H](N5)[C@H]3[C@H](C)O4)c12 [Example 19-1, 4-((5S,5aS,6S,9R)-12-((1-((4-(difluoromethylene)piperidin-1-yl)methyl)cyclopropyl)methoxy)-1-fluoro-5-methyl-5a,6,7,8,9,10-hexahydro-5H-4-oxa-3,10a,11,13,14-pentaaza-6,9-methylnaphtho[1,8-ab]hept-2-yl)-5-ethynyl-6-fluoronaphthalene-2-ol] | 476 | 904 | 35 | 11.2 | – | – | – | – | 1610 | 316 | 7.2 | 1 | 11.2 | –
